Laboratory results taken from patent US10315992B2, “Tetracyline compounds” (Tetraphase Pharmaceuticals, Inc., priority 2012, dated 2019).
≈ marks a conversion by molar mass, not a printed value. Where two headings read alike, the source gives them in different places.

What was measured:
[1] = tested on: Staphylococcus aureus SA100 (ATCC 13709, MSSA, Smith strain); assay: MIC assay, SA100; format: cell-based
[2] = tested on: Staphylococcus aureus SA101 (ATCC 29213, MSSA); assay: MIC assay, SA101; format: cell-based
[3] = tested on: Streptococcus pneumoniae SP106 (ATCC 49619); assay: MIC assay, SP106; format: cell-based
[4] = tested on: Escherichia coli EC878 (MG1655 tolC::kan); assay: microbe, parasite or virus in culture; format: cell-based
[5] = tested on: Proteus mirabilis PM385 (urine ESBL+ isolate); assay: MIC assay, PM385; format: cell-based
[6] = tested on: Pseudomonas aeruginosa PA111 (ATCC 27853); assay: MIC assay, PA111; format: cell-based
[7] = tested on: Pseudomonas aeruginosa PA673 (2009 urine isolate); assay: MIC assay, PA673; format: cell-based
[8] = tested on: Pseudomonas aeruginosa PA693 (2009 corneal scraping isolate); assay: MIC assay, PA693; format: cell-based
[9] = tested on: Stenotrophomonas maltophilia SM256 (cystic fibrosis isolate, MDR); assay: MIC assay, SM256; format: cell-based
[10] = tested on: Burkholderia cenocepacia BC240 (cystic fibrosis isolate, MDR); assay: MIC assay, BC240; format: cell-based; conditions: Burkholderia cenocepacia, control compounds
[11] = tested on: EC 882 imp; assay: MIC assay, EC882; format: cell-based
Text: Minimum Inhibitory Concentration (MIC) Assay
The assays were run as follows.

[12] = tested on: Klebsiella pneumoniae KP109 (ATCC 13883)
[13] = tested on: Klebsiella pneumoniae KP457 (2009 ESBL+, CTX-M, OXA)
[14] = tested on: PA 689; assay: MIC assay, PA689; conditions: Pseudomonas aeruginosa, read-out: MIC PA 689
Experimental: MICs were determined according to the Clinical and Laboratory Standards Institute (CLSI) guidances (e.g., CLSI. Performance standards for antimicrobial susceptibility testing; nineteenth information supplement. CLSI document M100-S19, CLSI, 940 West Valley Road, Suite 1400, Wayne, Pa. 19087-1898, USA, 2009). Briefly, frozen bacterial strains were thawed and subcultured onto Mueller Hinton Broth (MHB) or other appropriate media (Streptococcus requires blood and Haemophilus requires hemin and NAD). Following incubation overnight, the strains were subcultured onto Mueller Hinton Agar and again incubated overnight. […] Isolated colonies were selected to prepare a starting inoculum equivalent to a 0.5 McFarland standard. […] Test compounds were prepared by dilution in sterile water to a final concentration of 5.128 mg/mL. Antibiotics (stored frozen, thawed and used within 3 hours of thawing) and compounds were further diluted to the desired working concentrations.
The assays were run as follows. Fifty μL of MHB was added to wells 2-12 of a 96-well plate. One hundred μL of appropriately diluted antibiotics was added to well 1. Fifty μL of antibiotics was removed from well 1 and added to well 2 and the contents of well 2 mixed by pipetting up and down five times. Fifty μL of the mixture in well 2 was removed and added to well 3 and mixed as above. Serial dilutions were continued in the same manner through well 12. Fifty μL was removed from well 12 so that all contained 50 μL. Fifty μL of the working inoculum was then added to all test wells. A growth control well was prepared by adding 50 μL of working inoculum and 50 μL of MHB to an empty well. The plates were then incubated at 37° C. overnight, removed from the incubator and each well was read on a plate reading mirror. The lowest concentration (MIC) of test compound that inhibited the growth of the bacteria was recorded.

[15] = tested on: Staphylococcus epidermidis SE164 (ATCC 12228); assay: MIC assay, SE164; format: cell-based; conditions: ATCC12228, read-out: MIC SE 164 12228
[16] = tested on: Pseudomonas aeruginosa PA556 (multiple-Mex efflux pump knockout strain); assay: microbe, parasite or virus in culture; format: cell-based
[17] = tested on: Klebsiella pneumoniae KP109 (ATCC 13883); assay: MIC assay, KP109; conditions: K. pneumoniae ATCC 13883; Table 4
[18] = MG1655, read-out: MIC EC 878 toIC, E. coli MG1655 tolC::kan, Table 6
[19] = MG1655, read-out: MIC EC 878 toIC, E. coli MG1655 tolC::kan, Table 7
[20] = MG1655, read-out: MIC EC 878 toIC, control compounds
[21] = MG1655, read-out: MIC EC 878 tolC, control compounds, numeric
[22] = Table 6, read-out: MIC EC 882 imp
[23] = read-out: MIC SA 101 292 13, S. aureus ATCC 29213, MSSA, Table 6
[24] = read-out: MIC SA 101 29213, S. aureus ATCC 29213, MSSA, Table 4
[25] = read-out: MIC SA 101 29213, S. aureus ATCC 29213, MSSA, Table 5
[26] = read-out: MIC SA 101 29213, S. aureus ATCC 29213, MSSA, Table 7
[27] = read-out: MIC SA 101 29213, control compounds
[28] = read-out: MIC SA 101 29213, control compounds, numeric
[29] = ATCC49619, read-out: MIC SP 106 49619
[30] = ATCC27853, read-out: MIC PA 111 27853
[31] = Table 7, read-out: MIC EC 882 imp

Compound `CN(C)c1ccc(O)c2c1C[C@H]1C[C@H]3[C@H](N(C)C)C(O)=C(C(N)=O)C(=O)[C@@]3(O)C(O)=C1C2=O` [Minocycline, minocycline] has an MIC ([1]; S. aureus ATCC 13709, MSSA, Table 4, read-out: MIC SA 100 13709) of 0.063 µg/mL (≈ 0.138 µM), an MIC ([2]; S. aureus ATCC 29213, MSSA, Table 4, read-out: MIC SA 101 29213) of 0.063 µg/mL (≈ 0.138 µM) and an MIC ([2]; S. aureus ATCC 29213, MSSA, Table 5, read-out: MIC SA 101 29213) of 0.0625 µg/mL (≈ 0.137 µM). The MIC ([2]; S. aureus ATCC 29213, MSSA, Table 6, read-out: MIC SA 101 292 13) was 0.063 µg/mL (≈ 0.138 µM), the MIC ([2]; S. aureus ATCC 29213, MSSA, Table 7, read-out: MIC SA 101 29213) was 0.06 µg/mL (≈ 0.131 µM) and the MIC ([2]; control compounds, numeric, read-out: MIC SA 101 29213) was 0.06 µg/mL (≈ 0.131 µM). The MIC ([2]; control compounds, read-out: MIC SA 101 29213) was 0.06 µg/mL (≈ 0.131 µM), the MIC ([3]; ATCC49619, S. pneumoniae ATCC 49619, Table 4, read-out: MIC SP 106 49619) was 0.015 µg/mL (≈ 0.0328 µM) and the MIC [4, 18] was 0.25 µg/mL (≈ 0.546 µM). For the same compound, the MIC [4, 19] was 0.25 µg/mL (≈ 0.546 µM), the MIC [4, 20] was 0.25 µg/mL (≈ 0.546 µM) and the MIC [4, 21] was 0.25 µg/mL (≈ 0.546 µM). It also gave an MIC ([5]; P. mirabilis ESBL+, Table 6, read-out: MIC PM 385) of 16 µg/mL (≈ 35 µM), an MIC ([5]; control compounds, numeric, read-out: MIC PM 385 CTX-M15) of 16 µg/mL (≈ 35 µM) and an MIC ([6]; ATCC27853, P. aeruginosa ATCC 27853, Table 4, read-out: MIC PA 111 27853) of 16 µg/mL (≈ 35 µM). The MIC ([7]; control compounds, c3, strain PA673 inferred, read-out: MIC) was 32 µg/mL (≈ 69.9 µM), the MIC ([7]; control compounds, numeric, read-out: MIC PA 673) was 33 µg/mL (≈ 72.1 µM) and the MIC ([8]; control compounds, c5, strain PA693 inferred, read-out: MIC) was 33 µg/mL (≈ 72.1 µM). It also gave an MIC ([8]; control compounds, numeric, read-out: MIC PA 693) of 33 µg/mL (≈ 72.1 µM), an MIC ([9]; control compounds, c9, strain SM256 inferred, read-out: MIC) of 0.5 µg/mL (≈ 1.09 µM) and an MIC ([9]; control compounds, numeric, read-out: MIC SM 256) of 0.5 µg/mL (≈ 1.09 µM). The MIC ([10]; c10, strain BC240 inferred, read-out: MIC) was 8 µg/mL (≈ 17.5 µM), the MIC ([10]; numeric, read-out: MIC BC 240) was 8 µg/mL (≈ 17.5 µM) and the MIC [11, 22] was 0.015 µg/mL (≈ 0.0328 µM). For the same compound, the MIC ([11]; read-out: MIC EC 882 imp, Table 7) was 0.02 µg/mL (≈ 0.0437 µM), the “MIC KP 109 13883” value [12] was 1 µg/mL (≈ 2.19 µM) and the “MIC KP 457” value [13] was 8 µg/mL (≈ 17.5 µM). The “MIC KP 457 CTX- M-15” value [13] was 8 µg/mL (≈ 17.5 µM), the “MIC KP 457 CTX-M-15” value [13] was 8 µg/mL (≈ 17.5 µM) and the MIC [14] was 8 µg/mL (≈ 17.5 µM).

`CN(C)[C@@H]1C(O)=C(C(N)=O)C(=O)[C@@]2(O)C(O)=C3C(=O)c4c(O)cccc4C[C@H]3C[C@@H]12` [Sancycline, sancycline] showed an MIC ([1]; read-out: MIC SA 100 13709) of 1 µg/mL (≈ 2.41 µM), an MIC [2, 23] of 0.5 µg/mL (≈ 1.21 µM) and an MIC [2, 24] of 0.5 µg/mL (≈ 1.21 µM). For the same compound, the MIC [2, 25] was 0.5 µg/mL (≈ 1.21 µM), the MIC [2, 26] was 0.5 µg/mL (≈ 1.21 µM) and the MIC [2, 27] was 0.5 µg/mL (≈ 1.21 µM). The MIC [2, 28] was 0.5 µg/mL (≈ 1.21 µM), the MIC [15] was 4 µg/mL (≈ 9.65 µM) and the MIC [3, 29] was 0.25 µg/mL (≈ 0.603 µM). For the same compound, the MIC [4, 18] was 1 µg/mL (≈ 2.41 µM), the MIC [4, 19] was 1 µg/mL (≈ 2.41 µM) and the MIC [4, 20] was 1 µg/mL (≈ 2.41 µM). For the same compound, the MIC [4, 21] was 1 µg/mL (≈ 2.41 µM), the MIC ([5]; read-out: MIC PM 385) was 8 µg/mL (≈ 19.3 µM) and the MIC ([5]; read-out: MIC PM 385 CTX-M15) was 8 µg/mL (≈ 19.3 µM). The MIC [6, 30] was 33 µg/mL (≈ 79.6 µM), the MIC [16] was 1 µg/mL (≈ 2.41 µM) and the MIC ([16]; read-out: MIC PA 556) was 1 µg/mL (≈ 2.41 µM). The MIC [7] was 32 µg/mL (≈ 77.2 µM), the MIC ([7]; read-out: MIC PA 673) was 33 µg/mL (≈ 79.6 µM) and the MIC [8] was 33 µg/mL (≈ 79.6 µM). For the same compound, the MIC ([8]; read-out: MIC PA 693) was 33 µg/mL (≈ 79.6 µM), the MIC [9] was 1 µg/mL (≈ 2.41 µM) and the MIC ([9]; read-out: MIC SM 256) was 1 µg/mL (≈ 2.41 µM). For the same compound, the MIC [11, 31] was 0.25 µg/mL (≈ 0.603 µM), the MIC ([11]; read-out: MIC EC 882 imp, Table 6) was 0.25 µg/mL (≈ 0.603 µM) and the “MIC KP 457” value [13] was 8 µg/mL (≈ 19.3 µM). For the same compound, the “MIC KP 457 CTX- M-15” value [13] was 8 µg/mL (≈ 19.3 µM), the “MIC KP 457 CTX-M-15” value [13] was 8 µg/mL (≈ 19.3 µM) and the “MIC KP 109 13883” value [17] was 8 µg/mL (≈ 19.3 µM). The MIC [14] was 16 µg/mL (≈ 38.6 µM).

`CN(C)c1cc(NC(=O)CNC(C)(C)C)c(O)c2c1C[C@H]1C[C@H]3[C@H](N(C)C)C(O)=C(C(N)=O)C(=O)[C@@]3(O)C(O)=C1C2=O` [Tigecycline, tigecycline] showed an MIC ([1]; read-out: MIC SA 100 13709) of 0.063 µg/mL (≈ 0.108 µM), an MIC [2, 23] of 0.063 µg/mL (≈ 0.108 µM) and an MIC [2, 24] of 0.063 µg/mL (≈ 0.108 µM). For the same compound, the MIC [2, 25] was 0.0625 µg/mL (≈ 0.107 µM), the MIC [2, 26] was 0.06 µg/mL (≈ 0.102 µM) and the MIC [2, 27] was 0.06 µg/mL (≈ 0.102 µM). The MIC [2, 28] was 0.06 µg/mL (≈ 0.102 µM), the MIC [15] was 0.125 µg/mL (≈ 0.213 µM) and the MIC [3, 29] was 0.016 µg/mL (≈ 0.0273 µM). The MIC [4, 18] was 0.031 µg/mL (≈ 0.0529 µM), the MIC [4, 19] was 0.03 µg/mL (≈ 0.0512 µM) and the MIC [4, 20] was 0.03 µg/mL (≈ 0.0512 µM). It also gave an MIC [4, 21] of 0.03 µg/mL (≈ 0.0512 µM), an MIC ([5]; read-out: MIC PM 385) of 4 µg/mL (≈ 6.83 µM) and an MIC ([5]; read-out: MIC PM 385 CTX-M15) of 4 µg/mL (≈ 6.83 µM). It also gave an MIC [6, 30] of 8 µg/mL (≈ 13.7 µM), an MIC [16] of 0.25 µg/mL (≈ 0.427 µM) and an MIC ([16]; read-out: MIC PA 556) of 0.25 µg/mL (≈ 0.427 µM). For the same compound, the MIC [7] was 16 µg/mL (≈ 27.3 µM), the MIC ([7]; read-out: MIC PA 673) was 32 µg/mL (≈ 54.6 µM) and the MIC [8] was 32 µg/mL (≈ 54.6 µM). The MIC ([8]; read-out: MIC PA 693) was 33 µg/mL (≈ 56.3 µM), the MIC [9] was 1 µg/mL (≈ 1.71 µM) and the MIC ([9]; read-out: MIC SM 256) was 1 µg/mL (≈ 1.71 µM). The MIC [11, 22] was 0.015 µg/mL (≈ 0.0256 µM), the MIC [11, 31] was 0.02 µg/mL (≈ 0.0341 µM) and the “MIC KP 457 CTX- M-15” value ([13]; K. pneumoniae ESBL+, CTX-M, Table 6) was 1 µg/mL (≈ 1.71 µM). For the same compound, the “MIC KP 457 CTX- M-15” value ([13]; K. pneumoniae ESBL+, CTX-M, Table 7) was 1 µg/mL (≈ 1.71 µM), the “MIC KP 457 CTX-M-15” value ([13]; control compounds) was 1 µg/mL (≈ 1.71 µM) and the “MIC KP 457” value ([13]; control compounds, numeric) was 1 µg/mL (≈ 1.71 µM). For the same compound, the “MIC KP 109 13883” value [17] was 0.125 µg/mL (≈ 0.213 µM) and the MIC [14] was 1 µg/mL (≈ 1.71 µM).
